The source of these data is article PMC4770324 (Journal of Medicinal Chemistry, 2016).

Molecules are shown by their SMILES.

The series is described as follows: Chemical stability on storage.

For `O=c1[nH]cnc2c(-n3cc(CCN4CCC(c5cc(F)cc(F)c5)CC4)cn3)nccc12` [Compound 54l], the “chemical stability in air” value is recorded as “chemical instability”.
